Source: paper PMC4239038, “The Potent Cdc7-Dbf4 (DDK) Kinase Inhibitor XL413 Has Limited Activity in Many Cancer Cell Lines and Discovery of Potential New DDK Inhibitor Scaffolds” (PLoS ONE, 2014)

Target: T1, purified DDK (Homo sapiens, UniProt O00311)
T1 construct: His6-Smt3 (SUMO) (N, cleaved yes); made in house; host or cells: E. coli BL21-RIPL (pKT37, pETDuet-1 vector)
Test: DDK thermal stability shift assay (TSA)
Type: binding

[1] = library screen, 20 µM compound, 20 µM

T1 sequence (O00311 whole entry): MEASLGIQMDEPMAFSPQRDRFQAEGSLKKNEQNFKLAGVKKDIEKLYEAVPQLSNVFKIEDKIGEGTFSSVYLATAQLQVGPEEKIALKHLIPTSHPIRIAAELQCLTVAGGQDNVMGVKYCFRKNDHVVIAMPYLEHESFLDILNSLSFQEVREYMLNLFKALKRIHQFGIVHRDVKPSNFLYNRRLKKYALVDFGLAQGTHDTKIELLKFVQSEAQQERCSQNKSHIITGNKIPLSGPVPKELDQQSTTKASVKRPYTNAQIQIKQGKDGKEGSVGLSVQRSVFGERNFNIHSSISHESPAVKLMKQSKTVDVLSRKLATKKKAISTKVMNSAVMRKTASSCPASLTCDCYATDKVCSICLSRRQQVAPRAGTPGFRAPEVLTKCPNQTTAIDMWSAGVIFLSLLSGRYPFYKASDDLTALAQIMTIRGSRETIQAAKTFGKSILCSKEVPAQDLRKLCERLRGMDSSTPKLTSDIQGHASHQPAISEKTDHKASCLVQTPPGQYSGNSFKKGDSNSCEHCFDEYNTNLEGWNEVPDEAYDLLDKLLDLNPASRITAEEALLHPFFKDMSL
T1 sequence (Q9UBU7 341-674 partner limits assumed): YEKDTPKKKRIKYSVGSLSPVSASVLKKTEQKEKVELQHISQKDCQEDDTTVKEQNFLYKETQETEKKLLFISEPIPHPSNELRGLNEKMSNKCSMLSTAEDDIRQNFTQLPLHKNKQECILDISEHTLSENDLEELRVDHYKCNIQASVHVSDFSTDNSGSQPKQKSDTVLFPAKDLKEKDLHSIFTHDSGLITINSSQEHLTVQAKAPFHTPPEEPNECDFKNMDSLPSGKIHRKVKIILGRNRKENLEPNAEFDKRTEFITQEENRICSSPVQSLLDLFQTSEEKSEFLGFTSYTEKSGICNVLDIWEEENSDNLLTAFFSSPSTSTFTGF

Molecule | ΔTm (library screen, 20 µM compound) [°C] | also measured
Cl.O=S(=O)(c1cccc2c(Cl)cccc12)N1CCCNCC1 [ML 9 hydrochloride] | 0.6 | –
O=C(O)c1ccc2c3c1cccc3c(=O)n1c3ccccc3nc21 [STO-609] | – | ΔTm at 20 µM (library screen, 20 µM compound): 0.2 °C
Cl.O=c1cc(N2CCOCC2)oc2c(-c3ccccc3)cccc12 [LY 294002 hydrochloride] | 0.8 | –
Cc1[nH]c(/C=C2\C(=O)Nc3ccc(S(=O)(=O)Cc4c(Cl)cccc4Cl)cc32)c(C)c1C(=O)N1CCC[C@@H]1CN1CCCC1 [PHA 665752] | – | ΔTm at 20 µM (library screen, 20 µM compound): 0.4 °C
CC(C)(C)c1cc(C=C(C#N)C#N)cc(Br)c1O [AG 1024] | 1.2 | –
C[S+]([O-])c1ccc(-c2nc(-c3ccc(F)cc3)c(-c3ccncc3)[nH]2)cc1.Cl (stereo not drawn) [SB 203580 hydrochloride] | 0 | –
O=c1cc(N2CCOCC2)oc2c1ccc1ccccc12 [NU 7026] | – | ΔTm [1]: 1.2 °C
COc1cc2ncnc(Nc3cccc(Cl)c3)c2cc1OC [AG 1478] | 0.3 | –
COc1cc2nccc(Oc3ccc(NC(=O)Nc4ccc(F)cc4F)c(F)c3)c2cc1OC [Ki 8751] | 0.2 | –
Oc1ccc(-c2nc(-c3ccncc3)c(-c3ccc(F)cc3)[nH]2)cc1 [SB 202190] | – | ΔTm at 20 µM (library screen, 20 µM compound): 0.6 °C
Oc1c2ccccc2c2c3c(cccc13)N=N2 [SP 600125] | – | ΔTm at 20 µM (library screen, 20 µM compound): 0.2 °C
C/C(O)=C(\C#N)C(=O)Nc1cc(Br)ccc1Br [LFM-A13] | 0 | –
Cdk1/2 Inhibitor III | 1.1 | –
JAK Inhibitor I | 1.2 | –
CS(=O)(=O)c1ccc(-c2nc(-c3ccc(F)cc3)c(-c3ccncc3)[nH]2)cc1 [SB 203580, Sulfone] | – | ΔTm (20 µM): 0.5 °C
O=c1[nH]c2ccccc2n1C1CCN(Cc2ccc(-c3nc4cc5nc[nH]c5cc4nc3-c3ccccc3)cc2)CC1 | 0 | –
O=C(O)/C=C/c1cc(Br)c(Br)c(Br)c1Br [Casein Kinase II Inhibitor III, TBCA] | 32 | –
NC(=O)c1ccc(-c2nc(-c3ccc4c(c3)OCO4)c(-c3ccccn3)[nH]2)cc1 [SB 431542] | – | ΔTm at 20 µM (library screen, 20 µM compound): 0 °C
O=c1c(-c2ccc(O)cc2)coc2cc(O)cc(O)c12 [Genistein, 5,7-Dihydroxy-3-(4-hydroxyphenyl)-4H-1-benzopyran-4-one] | – | ΔTm profile (titration across a 200-fold range of inhibitor concentrations): increased ΔTm at lower inhibitor concentrations and then decreased ΔTm at 5, 10 and 20 µM concentrations
Cn1nc2c3c(cccc31)C(=O)c1ccccc1-2 [JNK Inhibitor, Negajve Control] | 0 | –
CC(=O)c1c(O)c(C)c(O)c(Cc2c(O)c3c(c(C(=O)/C=C/c4ccccc4)c2O)OC(C)(C)C=C3)c1O [Ro]lerin, 3'-[(8-Cinnamoyl-5,7-dihydroxy-2,2-dimethyl-2H-1-benzopyran-6-yl)methyl]-2',4',6'-trihydroxy-5'-methylacetophenone] | – | ΔTm at 20 µM (library screen, 20 µM compound): 2.4 °C
Cc1ncc2ccccc2c1C#N [4-Cyano-3-methylisoquinoline] | 0 | –
Nc1[nH]nc2nc3ccccc3nc12 [NSC 693868] | – | ΔTm [1]: 0.2 °C
CNc1cc2c(Nc3cccc(Br)c3)ncnc2cn1 [PD 158780] | 0.2 | –
Cc1nc2cc3nc(-c4cccs4)cnc3cc2n1C [AGL 2043] | 0 | –
O=c1cc(N2CCNCC2)oc2c(-c3ccccc3)cccc12 [LY 303511] | – | ΔTm at 20 µM (library screen, 20 µM compound): 0.1 °C
O=C1Nc2ccc(I)cc2/C1=C1/Nc2ccccc2/C1=N\O [Indirubin-3'-monoxime, 5-Iodo-] | 0.5 | –

Continued, in another order:

ΔTm (library screen, 20 µM compound) [°C] | Molecule | also measured
0.2 | PI 3-Kb Inhibitor II | –
1.5 | O=C(Nc1ccc(-c2cn[nH]c2)cc1)C1COc2ccccc2O1 (stereo not drawn) [Rho Kinase Inhibitor V] | –
1.2 | Cl.Cl.NCCNc1ncc(C(N)=O)c(Nc2cccc(C(F)(F)F)c2)n1 [Syk Inhibitor II] | –
0.6 | Nc1ncnc2c1cnn2-c1ccccc1 [PP3] | –
0 | COc1cc2ncnc(Nc3ccc(Cl)cc3F)c2cc1OC.Cl [ZM 306416 hydrochloride] | –
0 | Cc1cc(C(C)Nc2ccccc2)c2nc(N3CCOCC3)cc(=O)n2c1 (stereo not drawn) [PI 3-Kβ Inhibitor VI, TGX-221] | –
